Laboratory results: patent US10464926B2, “Heterobicyclic compounds and their use for the treatment of tuberculosis” (OTSUKA PHARMACEUTICAL CO., LTD., priority 2014, dated 2019)

For O=C1CCc2c(OCC3(C(=O)O)CCN(c4ncc(Cl)cc4Cl)CC3)ccc(F)c2N1, which melting point is on record?
Its melting point is 276 to 277 °C.

With O=C1CCc2c(OCC3(O)CCN(c4cc(OC(F)(F)F)c(Cl)cc4F)CC3)ccc(F)c2N1 as the compound, how does the melting point read?
Its melting point is 208 °C.

With O=C1CCc2c(OCC3(O)CCN(c4cc(OCCOc5ccc(F)cc5)c(Cl)cc4F)CC3)ccc(F)c2N1 as the compound, how does the melting point read?
The melting point was 159.2 to 160 °C.

With O=C1CCc2c(OC[C@]3(O)CCN(c4ccc(F)cc4Cl)C[C@H]3O)cc(F)c(F)c2N1 as the compound, how does the melting point read?
The melting point was 192.2 to 193.2 °C.

For O=C1CCc2c(OC[C@]3(O)CCN(c4c(F)cc(Cl)cc4F)C[C@@H]3F)ccc(F)c2N1 (relative stereo) [Example 439], which melting point is on record?
The melting point was 223 to 224 °C.

Which melting point does the source give for O=C1CCc2c(OC[C@]3(O)CCN(c4c(F)cc(Br)cc4F)C[C@H]3O)ccc(Cl)c2N1 (relative stereo) [Example 339] here?
Its melting point is 195 to 198 °C.

With O=C1CCc2c(OC[C@]3(O)CCN(c4c(F)cc(Cl)cc4F)C[C@H]3O)cc(F)c(Cl)c2N1 [Example 278] as the compound, how does the melting point read?
Its melting point is 192 to 194 °C.

For O=C1CCc2c(OC[C@@]3(O)CCN(c4cc(F)c(Cl)cc4F)C[C@H]3O)ccc(F)c2N1 (relative stereo), which melting point is on record?
Its melting point is 184 to 185 °C.

For CCCCOc1ccc(N2CCC(O)(COc3ccc(F)c4c3CCC(=O)N4)CC2)c(F)c1, which melting point is on record?
The melting point was 193.2 to 193.5 °C.

For O=C1CCc2c(NCC3(O)CCN(c4ccc(Cl)cc4Cl)CC3)ccc(F)c2N1, which melting point is on record?
The melting point was 226 to 227 °C.

For CCOc1cc(F)c(N2CC[C@@](O)(COc3ccc(F)c4c3CCC(=O)N4)[C@H](O)C2)c(F)c1 (relative stereo) [Example 316], which melting point is on record?
Its melting point is 199 to 202 °C.

With O=C1CCc2c(OC[C@]3(O)CCN(c4ccc(OC(F)(F)F)cc4F)C[C@H]3O)ccc(F)c2N1 as the compound, how does the melting point read?
The melting point was 161.6 to 161.9 °C.

For O=C1CCc2c(OC[C@]3(O)CCN(c4ccc(Cl)cc4F)C[C@@H]3O)ccc(F)c2N1, which melting point is on record?
The melting point was 198.6 to 198.8 °C.

With CSc1ccc(N2CCC(O)(COc3ccc(Cl)c4c3CCC(=O)N4)CC2)c(Cl)c1 as the compound, how does the melting point read?
Its melting point is 160.7 to 160.9 °C.

For CCOc1cc(F)c(N2CCC(O)(COc3ccc(F)c4c3CCC(=O)N4)CC2)c(F)c1, which melting point is on record?
Its melting point is 207.9 to 208.8 °C.

Which melting point does the source give for O=C1CCc2c(OCC3(O)CCN(c4ccc(OC(F)(F)F)cc4F)CC3)ccc(F)c2N1 here?
The melting point was 174.2 to 174.3 °C.

For O=c1ccc2c(OC[C@]3(O)CCN(c4c(F)cc(Cl)cc4F)C[C@H]3O)ccc(F)c2[nH]1 [Example 367], which melting point is on record?
Its melting point is 247.4 to 247.5 °C.

Which melting point does the source give for O=C1CCc2c(OCC3(O)CCN(c4ccc(Br)cc4F)CC3)ccc(Cl)c2N1 here?
The melting point was 223.1 to 223.2 °C.

Which melting point does the source give for O=C1CCc2c(NCC3(O)CCN(c4ccc(F)cc4Cl)CC3)ccc(F)c2N1 here?
The melting point was 214 to 215 °C.

Which melting point does the source give for Cc1cc(Cl)ccc1N1CCC(O)(COc2ccc(F)c3c2CCC(=O)N3)CC1 here?
The melting point was 214 to 215 °C.

For CCOC(=O)O[C@@H]1CN(c2ccc(Cl)cc2F)CC[C@@]1(O)COc1ccc(F)c2c1CCC(=O)N2, which melting point is on record?
Its melting point is 171 to 172 °C.

For CSc1ccc(N2CCC(O)(COc3ccc(F)c4c3CCC(=O)N4)CC2)c(Cl)c1, which melting point is on record?
The melting point was 207.4 to 207.6 °C.

With CCOc1cc(F)c(N2CCC(O)(COc3ccc(Cl)c4c3CCC(=O)N4)CC2)cc1F as the compound, how does the melting point read?
Its melting point is 169 to 169.2 °C.

With O=C1CCc2c(OC[C@]3(O)CCN(c4ccccc4)C[C@H]3O)ccc(F)c2N1 as the compound, how does the melting point read?
The melting point was 202.8 to 203.5 °C.

For COc1cc(F)c(N2CCC(O)(COc3ccc(F)c4c3CCC(=O)N4)CC2)c(F)c1, which melting point is on record?
The melting point was 195.7 to 196.4 °C.

With O=C1CCc2c(OCC3(O)CCN(c4c(F)cc(Cl)cc4Cl)CC3)ccc(F)c2N1 as the compound, how does the melting point read?
The melting point was 238.8 to 239.1 °C.

For O=c1ccc2c(OC[C@]3(O)CCN(c4c(F)cc(Cl)cc4F)C[C@H]3O)ccc(Cl)c2[nH]1, which melting point is on record?
Its melting point is 228.8 to 229.5 °C.

Which melting point does the source give for CC(C)Oc1cc(N2CCC(O)(COc3ccc(F)c4c3CCC(=O)N4)CC2)c(F)cc1Cl here?
Its melting point is 216.7 to 217 °C.

For O=C1CCc2c(OCC3(O)CCN(c4ccc(OC(F)F)cc4F)CC3)ccc(F)c2N1, which melting point is on record?
Its melting point is 201.6 to 202 °C.

For Cc1cc(N2CCC(O)(COc3ccc(Cl)c4c3CCC(=O)N4)CC2)c(F)cc1F, which melting point is on record?
The melting point was 195 to 195.2 °C.

For O=C1CCc2c(OCC3(O)CCN(c4ccc5sccc5c4)CC3)ccc(Cl)c2N1, which melting point is on record?
Its melting point is 193.8 to 194.5 °C.
